Data reported in patent US20260234139A1, “PGDH INHIBITORS AND METHODS OF MAKING AND USING” (Epirium Bio Inc., priority 2023, published 2026).

How the values were obtained:
[1] = tested on: A549; experiment: A549 EC50 (cell assay, method not described); format: cell-based; conditions: Homo sapiens, A549, A549
[2] = target: T1, 15-PGDH/HPGD (Homo sapiens, UniProt P15428); experiment: hPGDH inhibitor screening biochemical assay; conditions: 10 nM enzyme, 15 μM Prostaglandin E2, 0.25 mM NAD, fluorescence ex/em 340/485 nm
T1 construct: purchased R&D System 5660-DH
T1 sequence (P15428 1-266): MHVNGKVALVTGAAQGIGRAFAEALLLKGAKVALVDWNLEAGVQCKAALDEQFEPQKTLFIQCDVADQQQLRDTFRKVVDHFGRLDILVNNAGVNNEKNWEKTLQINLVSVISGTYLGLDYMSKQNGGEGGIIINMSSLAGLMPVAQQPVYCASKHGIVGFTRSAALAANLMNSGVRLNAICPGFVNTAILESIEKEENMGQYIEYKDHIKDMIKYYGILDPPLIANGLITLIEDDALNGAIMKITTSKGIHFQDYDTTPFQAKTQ
How it was run: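 Recombinant 15-PGDH (10 nM) preincubated with compound 10 min at 37° C, then 15 μM PGE2 and 0.25 mM NAD⁺ added for 10 min at room temperature in 50 mM Tris-HCl pH 7.5, 0.01% Tween 20. NADH fluorescence at ex/em 340/485 nm; 10-point dose response.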

Compound | EC50 [1] | IC50 [2]
C[C@H]1C[C@H](OC[C@H](O)c2cnc3c(cnn3-c3ccc(C(=O)O)cc3)c2)C1 [Compound 127C] | ≥ 1000 nM | 100 to 1000 nM
O=C(O)CCc1ccc(-n2ncc3cc([C@H](O)COC4CCCC4)cnc32)cc1F [Compound 88B] | 100 to 1000 nM | < 100 nM
CC(C)OC[C@@H](O)c1cnc2c(cnn2-c2ccc3nc(N4CCOCC4)nn3c2)c1 [Compound 60A] | < 100 nM | < 100 nM
CC(C)OC[C@H](O)c1cnc2c(cnn2-c2ccc(OCC(=O)O)c(F)c2)c1 [Compound 74B] | ≥ 1000 nM | 100 to 1000 nM
CCCC(F)(F)[C@H](O)c1cnc2c(ccn2-c2cccc(-c3nnc[nH]3)c2)n1 [Compound 35B] | ≥ 1000 nM | 100 to 1000 nM
O=C(O)c1ccc(-n2ncc3cc([C@H](O)COCC4CC4)ccc32)cc1 [Compound 114B] | 100 to 1000 nM | < 100 nM
O=C(O)c1ccc(-n2ccc3nc([C@@H](O)COC4CCC4)cnc32)cc1 [Compound 47A] | ≥ 1000 nM | < 100 nM
CC(C)(C)OC[C@H](O)c1cnc2c(ccn2-c2cccc(-c3nnc[nH]3)c2)n1 [Compound 26A] | 100 to 1000 nM | < 100 nM
CC(C)OC[C@H](O)c1cnc2c(cnn2-c2ccc(CC(=O)O)cc2)c1 [Compound 71B] | ≥ 1000 nM | ≥ 1000 nM
CCC1(OC[C@H](O)c2cnc3c(cnn3-c3ccc(C(=O)O)cc3)c2)CC1 [Compound 93A] | 100 to 1000 nM | < 100 nM
Cc1nn(-c2ccc(C(=O)O)cc2)c2ncc([C@@H](O)COC3CCC3)cc12 [Compound 109A] | ≥ 1000 nM | < 100 nM
C[C@H]1C[C@H](OC[C@@H](O)c2cnc3c(cnn3-c3ccc(C(=O)O)cc3)c2)C1 [Compound 127D] | < 100 nM | < 100 nM
O[C@H](c1cnc2c(ccn2-c2cc(Cl)cc(-c3nnc[nH]3)c2)c1)C1CCC(F)(F)CC1 [Compound 12B] | < 100 nM | < 100 nM
C[C@@H](OC1CCC1)[C@H](O)c1cnc2c(cnn2-c2ccc(C(=O)O)cc2)c1 [Compound 108A] | < 100 nM | < 100 nM
CC(C)OC[C@H](O)c1cnc2c(cnn2-c2ccc(OCC(=O)O)cc2)c1 [Compound 78A] | ≥ 1000 nM | 100 to 1000 nM
CCOC1([C@@H](O)c2cnc3c(cnn3-c3ccc4nc(N5CCOCC5)nn4c3)c2)CC1 [Compound 62B] | ≥ 1000 nM | 100 to 1000 nM
CC(C)OC[C@@H](O)c1cnc2c(cnn2-c2ccc(CCCC(=O)O)cc2)c1 [Compound 66A] | < 100 nM | < 100 nM
O[C@H](COC1CCC1)c1cnc2c(ccn2-c2cccc(-c3nnc[nH]3)c2)n1 [Compound 30A] | 100 to 1000 nM | < 100 nM
O[C@H](COC1CCC1)c1cnc2c(cnn2-c2ccc(N3CCCC3)cc2)c1 [Compound 75A] | 100 to 1000 nM | 100 to 1000 nM

Compound | EC50 [1] | IC50 [2]
CC1(C)CC(OC[C@H](O)c2cnc3c(cnn3-c3ccc(C(=O)O)nc3)c2)C1 [Compound 116A] | ≥ 1000 nM | 100 to 1000 nM
O=C(O)c1ccc(-n2ccc3nc([C@H](O)COC4CCC4)cnc32)cc1 [Compound 47B] | < 100 nM | < 100 nM
CCOC1([C@H](O)c2cnc3c(cnn3-c3ccc(C(=O)O)cc3)c2)CC1 [Compound 58A] | ≥ 1000 nM | ≥ 1000 nM
O=C(O)c1ccc(-n2ncc3cc([C@H](O)COCC4(C(F)(F)F)CC4)cnc32)cc1 [Compound 113B] | 100 to 1000 nM | < 100 nM
O[C@@H](c1cnc2c(ccn2-c2cc(Cl)cc(-c3nnc[nH]3)c2)c1)C1CCC(F)(F)CC1 [Compound 12A] | ≥ 1000 nM | < 100 nM
COCCNC(=O)c1ccc(-n2ncc3cc([C@H](O)COC4CCC4)cnc32)cc1 [Compound 118B] | 100 to 1000 nM | 100 to 1000 nM
CN(C)C(=O)c1ccc(-n2ncc3cc([C@H](O)COC4CCC4)cnc32)cc1 [Compound 80A] | < 100 nM | < 100 nM
C[S+]([O-])c1ccc(-n2ncc3cc([C@@H](O)COC4CCC4)cnc32)cc1 (some centres unmarked) [Compound 124A] | < 100 nM | < 100 nM
COCCNC(=O)c1ccc(-n2ncc3cc([C@@H](O)COC4CCC4)cnc32)cc1 [Compound 118A] | < 100 nM | < 100 nM
CC(C)OC[C@H](O)c1cnc2c(cnn2-c2ccc(C(=O)O)cc2)c1 [Compound 48A] | 100 to 1000 nM | < 100 nM
O=C(O)c1ccc(-n2ncc3cc(C(O)C4CC(F)(F)C4)cnc32)cc1 (stereo in doubt) [Compound 45B, (S)-4-(5-((3,3-difluorocyclobutyl)(hydroxy)methyl)-1H-pyrazolo[3,4-b]pyridin-1-yl)benzoic acid] | < 100 nM | < 100 nM
O=C(O)c1ccc(-n2ncc3cc([C@@H](O)COC4CCCC4)cnc32)cc1 [Compound 89A] | ≥ 1000 nM | < 100 nM
CC(C)OCC(O)c1cnc2c(cnn2-c2ccc(CCC(=O)O)c(F)c2)c1 (stereo in doubt) [Compound 70A, (R)-3-(2-fluoro-4-(5-(1-hydroxy-2-isopropoxyethyl)-1H-pyrazolo[3,4-b]pyridin-1-yl)phenyl) propanoic acid] | < 100 nM | < 100 nM
O=C(O)c1ccc(-n2ncc3cc([C@@H](O)COC4(C(F)(F)F)CCC4)cnc32)cc1 [Compound 115A] | 100 to 1000 nM | < 100 nM
C[C@H](OC1CCC1)[C@H](O)c1cnc2c(cnn2-c2ccc(C(=O)O)cc2)c1 [Compound 108C] | 100 to 1000 nM | 100 to 1000 nM
CC(C)OC[C@H](O)c1cnc2c(cnn2-c2ccc(CCC(=O)O)cc2)c1 [Compound 69B] | 100 to 1000 nM | 100 to 1000 nM
CC1(COC[C@@H](O)c2cnc3c(cnn3-c3ccc(C(=O)O)cc3)c2)CC1 [Compound 106B] | ≥ 1000 nM | < 100 nM
CC(C)OC[C@H](O)c1cnc2c(cnn2-c2ccc(CCCC(=O)O)cc2)c1 [Compound 66B] | 100 to 1000 nM | 100 to 1000 nM
CNC(=O)c1cccc(-n2ncc3cc([C@@H](O)COC4CCC4)cnc32)c1 [Compound 110A] | < 100 nM | < 100 nM

More lines, now with the values ahead:

EC50 [1] | IC50 [2] | Compound
100 to 1000 nM | < 100 nM | CC(C)(O)CC[C@H](O)c1cnc2c(cnn2-c2cccc(-c3nnc[nH]3)c2)c1 [Compound 56A]
< 100 nM | < 100 nM | O[C@H](c1cnc2c(cnn2-c2cccc(-c3nnc[nH]3)c2)c1)C1CC2CC2C1 (some centres unmarked) [Compound 50B]
< 100 nM | < 100 nM | O[C@@H](c1cnc2c(cnn2-c2cccc(-c3nnc[nH]3)c2)c1)[C@H]1CCOC1 [Compound 68C]
≥ 1000 nM | 100 to 1000 nM | CN(C)C[C@@H](O)c1cnc2c(cnn2-c2cccc(-c3nnc[nH]3)c2)c1 [Compound 25B]
100 to 1000 nM | < 100 nM | CCCC(F)(F)[C@@H](O)c1cnc2c(ccn2-c2cccc(-c3nnc[nH]3)c2)c1 [Compound 4A]
≥ 1000 nM | 100 to 1000 nM | COC1([C@H](O)c2cnc3c(cnn3-c3cccc(-c4nnc[nH]4)c3)c2)CC1 [Compound 59B]
100 to 1000 nM | < 100 nM | CC(C)NC[C@@H](O)c1cnc2c(cnn2-c2cccc(-c3nnc[nH]3)c2)c1 [Compound 27B, (S)-1-(1-(3-(4H-1,2,4-triazol-3-yl)phenyl)-1H-pyrazolo[3,4-b]pyridin-5-yl)-2-(isopropylamino) ethan-1-ol]
100 to 1000 nM | < 100 nM | COC1([C@@H](O)c2cnc3c(cnn3-c3cccc(-c4nnc[nH]4)c3)c2)CC1 [Compound 59A]
< 100 nM | < 100 nM | CC(F)(F)[C@@H](O)c1cnc2c(ccn2-c2cccc(-c3nnc[nH]3)c2)c1 [Compound 5A]
≥ 1000 nM | ≥ 1000 nM | CCNCC(O)c1cnc2c(cnn2-c2cccc(-c3nnc[nH]3)c2)c1 (centres unmarked) [Compound 21]
< 100 nM | < 100 nM | CC(C)(C)OC[C@@H](O)c1cnc2c(cnn2-c2cccc(-c3nnc[nH]3)c2)c1 [Compound 32B]
< 100 nM | < 100 nM | CC(C)OC[C@@H](O)c1cnc2c(ccn2-c2cccc(-c3nnc[nH]3)c2)c1 [Compound 29B]
100 to 1000 nM | < 100 nM | O[C@@H](COC1CC1)c1cnc2c(cnn2-c2cccc(-c3nnc[nH]3)c2)c1 [Compound 37A]
< 100 nM | < 100 nM | O[C@@H](COC1CCC1)c1cnc2c(cnn2-c2cncc(-c3nnc[nH]3)c2)c1 [Compound 117A]
< 100 nM | < 100 nM | CC(C)OC[C@H](O)c1cnc2c(ccn2-c2cccc(-c3nnc[nH]3)c2)c1 [Compound 29A]
100 to 1000 nM | 100 to 1000 nM | CC(F)(F)[C@H](O)c1cnc2c(ccn2-c2cccc(-c3nnc[nH]3)c2)c1 [Compound 5B]
< 100 nM | < 100 nM | O[C@@H](c1cnc2c(cnn2-c2cccc(-c3nnc[nH]3)c2)c1)C1COC1 [Compound 28A]
100 to 1000 nM | < 100 nM | CC(C)OCC(O)c1cnc2c(cnn2-c2cccc(-c3nnc[nH]3)c2)c1 (single isomer, unassigned) [Compound 18B]
100 to 1000 nM | < 100 nM | O[C@H](c1cnc2c(cnn2-c2cccc(-c3nnc[nH]3)c2)c1)C1C2CCCCC21 (some centres unmarked) [Compound 51A]
100 to 1000 nM | < 100 nM | CCOC[C@H](O)c1cnc2c(cnn2-c2cccc(-c3nnc[nH]3)c2)c1 [Compound 23A]
